Assay results: US6043217A, “Amide derivative of amythiamicin” (Zaidan Hojin Biseibutsu Kagaku Kenyu Kai, priority 1996, dated 2000)

Experiments:
Format in all cases: cell-based
[1] = system: Providencia rettgeri GN 466; test: MIC, standard serial dilution method; details: Muller-Hinton agar medium, 37° C.
[2] = system: Pseudomonas aeruginosa A3; test: MIC, standard serial dilution method; details: Muller-Hinton agar medium, 37° C.
[3] = system: Staphylococcus aureus Smith; test: MIC, standard serial dilution method; details: Muller-Hinton agar medium, 37° C.
[4] = system: Proteus mirabilis IFM OM-9; test: MIC, standard serial dilution method; details: Muller-Hinton agar medium, 37° C.
Bacillus anthracis = details: Muller-Hinton agar medium, 37° C.
[5] = system: Escherichia coli BEM 1121; test: MIC, standard serial dilution method; details: Muller-Hinton agar medium, 37° C.
[6] = system: Shigella dysenteria JS 11910; test: MIC, standard serial dilution method; details: Muller-Hinton agar medium, 37° C.
[7] = system: Staphylococcus aureus No. 17 (MRSA); test: MIC, standard serial dilution method; details: Muller-Hinton agar medium, 37° C.
[8] = system: Corynebacterium bovis 1810; test: MIC, standard serial dilution method; details: Muller-Hinton agar medium, 37° C.
[9] = system: Bacillus subtilis PCI 219; test: MIC, standard serial dilution method; details: Muller-Hinton agar medium, 37° C.
[10] = system: Bacillus subtilis NRRL B-558; test: MIC, standard serial dilution method; details: Muller-Hinton agar medium, 37° C.
[11] = system: Staphylococcus aureus MS 9610; test: MIC, standard serial dilution method; details: Muller-Hinton agar medium, 37° C.
Escherichia coli K-12 = test: MIC, standard serial dilution method; details: Muller-Hinton agar medium, 37° C.
[12] = system: Micrococcus luteus IFO 3333; test: MIC, standard serial dilution method; details: Muller-Hinton agar medium, 37° C.
Candida albicans 3147 = test: MIC, standard serial dilution method; details: Muller-Hinton agar medium, 37° C.
Escherichia coli BEM 11 = test: MIC, standard serial dilution method; details: Muller-Hinton agar medium, 37° C.
[13] = system: Micrococcus luteus PIC 1001; test: MIC, standard serial dilution method; details: Muller-Hinton agar medium, 37° C.
[14] = system: Staphylococcus aureus FDA 209P; test: MIC, standard serial dilution method; details: Muller-Hinton agar medium, 37° C.
Escherichia coli BE 1186 = test: MIC, standard serial dilution method; details: Muller-Hinton agar medium, 37° C.
[15] = system: Providencia rettgeri GN 311; test: MIC, standard serial dilution method; details: Muller-Hinton agar medium, 37° C.
Salmonella typhi T-63 = test: MIC, standard serial dilution method; details: Muller-Hinton agar medium, 37° C.
[16] = system: Salmonella enteritidis 1891; test: MIC, standard serial dilution method; details: Muller-Hinton agar medium, 37° C.
[17] = system: Micrococcus luteus FDA 16; test: MIC, standard serial dilution method; details: Muller-Hinton agar medium, 37° C.
[18] = system: Staphylococcus aureus TY-0428; test: MIC, standard serial dilution method; details: Muller-Hinton agar medium, 37° C.
[19] = system: Mycobacterium smegmatis ATCC 607; test: MIC, standard serial dilution method; details: Muller-Hinton agar medium, 37° C.
Serratia marcescens = test: MIC, standard serial dilution method; details: Muller-Hinton agar medium, 37° C.
[20] = system: Pseudomonas aeruginosa GN315; test: MIC, standard serial dilution method; details: Muller-Hinton agar medium, 37° C.
Escherichia coli NIHJ = test: MIC, standard serial dilution method; details: Muller-Hinton agar medium, 37° C.
Shigella sonnei JS 11746 = test: MIC, standard serial dilution method; details: Muller-Hinton agar medium, 37° C.
Description: (§1) The antibacterial activities of the amythiamicin amide derivative of the general formula (I) according to this invention are now concretely described. Compounds No. 1 to No. 11 according to this invention, which were respectively prepared in Examples 1 to 11 hereinafter given, were tested as the test compounds for their minimum inhibitory concentrations (MIC.) (μg/ml) against growth of a variety of test microorganisms by a standard serial dilution method. In the tests, the incubation medium used was Muller-Hinton agar medium and the incubation temperature was 37° C. The test results are shown as antibacterial spectra in the following Tables 2 and 3.

[21] = system: Escherichia coli K-12 ML 1692; test: MIC, standard serial dilution method; details: Muller-Hinton agar medium, 37° C.
Description: as §1

[22] = system: Shigella clexnerl JS 11749; test: MIC, standard serial dilution method; details: Muller-Hinton agar medium, 37° C.
Description: as §1

[23] = system: Staphylococcus aureus No. 5 (MRSA); test: MIC, standard serial dilution method; details: Muller-Hinton agar medium, 37° C.
[24] = system: Klebsiella pneumonia PCI 602; test: MIC, standard serial dilution method; details: Klebsiella pneumonia PCI 602 (Table 2); Muller-Hinton agar medium, 37° C.
Proteus vulgaris OX 19 = test: MIC, standard serial dilution method; details: Muller-Hinton agar medium, 37° C.
[25] = system: Bacillus cereus ATCC 10702; test: MIC, standard serial dilution method; details: Muller-Hinton agar medium, 37° C.
[26] = system: Staphylococcus aureus MS 16526; test: MIC, standard serial dilution method; details: Muller-Hinton agar medium, 37° C.

| SMILES | Minimum growth inhibitory concentrations (MIC.) [1] | Minimum growth inhibitory concentrations (MIC.) [2] | Minimum growth inhibitory concentrations (MIC.) [3] | Minimum growth inhibitory concentrations (MIC.) [4] | Minimum growth inhibitory concentrations (MIC.) (Bacillus anthracis) | Minimum growth inhibitory concentrations (MIC.) [5] | Minimum growth inhibitory concentrations (MIC.) [6] | Minimum growth inhibitory concentrations (MIC.) [7] | Minimum growth inhibitory concentrations (MIC.) [8] | Minimum growth inhibitory concentrations (MIC.) [9] | Minimum growth inhibitory concentrations (MIC.) [10] | Minimum growth inhibitory concentrations (MIC.) [11] | Minimum growth inhibitory concentrations (MIC.) (Escherichia coli K-12) | Minimum growth inhibitory concentrations (MIC.) [12] | Minimum growth inhibitory concentrations (MIC.) (Candida albicans 3147) | Minimum growth inhibitory concentrations (MIC.) (Escherichia coli BEM 11) | Minimum growth inhibitory concentrations (MIC.) [13] | Minimum growth inhibitory concentrations (MIC.) [14] | Minimum growth inhibitory concentrations (MIC.) (Escherichia coli BE 1186) | Minimum growth inhibitory concentrations (MIC.) [15] | further results |
| --- | --- | --- | --- | --- | --- | --- | --- | --- | --- | --- | --- | --- | --- | --- | --- | --- | --- | --- | --- | --- | --- |
| CNC(=O)CC1NC(=O)c2csc(n2)-c2ccc(-c3nc(C(=O)NCCCN)cs3)nc2-c2csc(n2)-c2csc(n2)C(C(C)C)NC(=O)CNC(=O)c2csc(n2)C(C(C)C)NC(=O)c2nc1sc2C (stereo not drawn) [Compound No. 5] | > 100 µg/mL | > 100 µg/mL | 3.12 µg/mL | > 100 µg/mL | 0.78 µg/mL | > 100 µg/mL | > 100 µg/mL | 6.25 µg/mL | > 100 µg/mL | 3.12 µg/mL | 6.25 µg/mL | 3.12 µg/mL | > 100 µg/mL | 3.12 µg/mL | > 100 µg/mL | > 100 µg/mL | 0.78 µg/mL | 0.78 µg/mL | > 100 µg/mL | > 100 µg/mL | Minimum growth inhibitory concentrations (MIC.) (Salmonella typhi T-63): > 100 µg/mL; Minimum growth inhibitory concentrations (MIC.) [16]: > 100 µg/mL; Minimum growth inhibitory concentrations (MIC.) [17]: 12.5 µg/mL; Minimum growth inhibitory concentrations (MIC.) [18]: 3.12 µg/mL; Minimum growth inhibitory concentrations (MIC.) [19]: > 100 µg/mL; Minimum growth inhibitory concentrations (MIC.) (Serratia marcescens): > 100 µg/mL; Minimum growth inhibitory concentrations (MIC.) [20]: > 100 µg/mL; Minimum growth inhibitory concentrations (MIC.) (Escherichia coli NIHJ): > 100 µg/mL; Minimum growth inhibitory concentrations (MIC.) (Shigella sonnei JS 11746): > 100 µg/mL; Minimum growth inhibitory concentrations (MIC.) [21]: > 100 µg/mL; Minimum growth inhibitory concentrations (MIC.) [22]: > 100 µg/mL; Minimum growth inhibitory concentrations (MIC.) [23]: 6.25 µg/mL; Minimum growth inhibitory concentrations (MIC.) [24]: > 100 µg/mL; Minimum growth inhibitory concentrations (MIC.) (Proteus vulgaris OX 19): > 100 µg/mL; Minimum growth inhibitory concentrations (MIC.) [25]: 1.56 µg/mL; Minimum growth inhibitory concentrations (MIC.) [26]: 6.25 µg/mL |
| CCCCNCCCNCCCNC(=O)c1csc(-c2ccc3c(n2)-c2csc(n2)-c2csc(n2)C(C(C)C)NC(=O)CNC(=O)c2csc(n2)C(C(C)C)NC(=O)c2nc(sc2C)C(CC(=O)NC)NC(=O)c2csc-3n2)n1 (stereo not drawn) [Compound No. 6] | > 100 µg/mL | > 100 µg/mL | 25 µg/mL | > 100 µg/mL | 25 µg/mL | > 100 µg/mL | > 100 µg/mL | > 100 µg/mL | > 100 µg/mL | > 100 µg/mL | 25 µg/mL | > 100 µg/mL | > 100 µg/mL | > 100 µg/mL | > 100 µg/mL | > 100 µg/mL | > 100 µg/mL | 50 µg/mL | > 100 µg/mL | > 100 µg/mL | Minimum growth inhibitory concentrations (MIC.) (Salmonella typhi T-63): > 100 µg/mL; Minimum growth inhibitory concentrations (MIC.) [16]: > 100 µg/mL; Minimum growth inhibitory concentrations (MIC.) [17]: > 100 µg/mL; Minimum growth inhibitory concentrations (MIC.) [18]: > 100 µg/mL; Minimum growth inhibitory concentrations (MIC.) [19]: > 100 µg/mL; Minimum growth inhibitory concentrations (MIC.) (Serratia marcescens): > 100 µg/mL; Minimum growth inhibitory concentrations (MIC.) [20]: > 100 µg/mL; Minimum growth inhibitory concentrations (MIC.) (Escherichia coli NIHJ): > 100 µg/mL; Minimum growth inhibitory concentrations (MIC.) (Shigella sonnei JS 11746): > 100 µg/mL; Minimum growth inhibitory concentrations (MIC.) [21]: > 100 µg/mL; Minimum growth inhibitory concentrations (MIC.) [22]: > 100 µg/mL; Minimum growth inhibitory concentrations (MIC.) [23]: > 100 µg/mL; Minimum growth inhibitory concentrations (MIC.) [24]: > 100 µg/mL; Minimum growth inhibitory concentrations (MIC.) (Proteus vulgaris OX 19): > 100 µg/mL; Minimum growth inhibitory concentrations (MIC.) [25]: > 100 µg/mL; Minimum growth inhibitory concentrations (MIC.) [26]: > 100 µg/mL |
| CNC(=O)CC1NC(=O)c2csc(n2)-c2ccc(-c3nc(C(=O)NCCCN(C)CCCN)cs3)nc2-c2csc(n2)-c2csc(n2)C(C(C)C)NC(=O)CNC(=O)c2csc(n2)C(C(C)C)NC(=O)c2nc1sc2C (stereo not drawn) [Compound No. 4] | > 100 µg/mL | > 100 µg/mL | 12.5 µg/mL | > 100 µg/mL | 3.12 µg/mL | > 100 µg/mL | > 100 µg/mL | > 100 µg/mL | > 100 µg/mL | > 100 µg/mL | > 100 µg/mL | 50 µg/mL | > 100 µg/mL | > 100 µg/mL | > 100 µg/mL | > 100 µg/mL | 3.12 µg/mL | 12.5 µg/mL | > 100 µg/mL | > 100 µg/mL | Minimum growth inhibitory concentrations (MIC.) (Salmonella typhi T-63): > 100 µg/mL; Minimum growth inhibitory concentrations (MIC.) [16]: > 100 µg/mL; Minimum growth inhibitory concentrations (MIC.) [17]: > 100 µg/mL; Minimum growth inhibitory concentrations (MIC.) [18]: > 100 µg/mL; Minimum growth inhibitory concentrations (MIC.) [19]: > 100 µg/mL; Minimum growth inhibitory concentrations (MIC.) (Serratia marcescens): > 100 µg/mL; Minimum growth inhibitory concentrations (MIC.) [20]: > 100 µg/mL; Minimum growth inhibitory concentrations (MIC.) (Escherichia coli NIHJ): > 100 µg/mL; Minimum growth inhibitory concentrations (MIC.) (Shigella sonnei JS 11746): > 100 µg/mL; Minimum growth inhibitory concentrations (MIC.) [21]: > 100 µg/mL; Minimum growth inhibitory concentrations (MIC.) [22]: > 100 µg/mL; Minimum growth inhibitory concentrations (MIC.) [23]: > 100 µg/mL; Minimum growth inhibitory concentrations (MIC.) [24]: > 100 µg/mL; Minimum growth inhibitory concentrations (MIC.) (Proteus vulgaris OX 19): > 100 µg/mL; Minimum growth inhibitory concentrations (MIC.) [25]: 6.25 µg/mL; Minimum growth inhibitory concentrations (MIC.) [26]: > 100 µg/mL |
